Results taken from US7351722B2, “Use of Mangafodipir for treating oxidative stress effects” (Universite Rene Descartes (Paris V), priority 2001, dated 2008).

What was measured:
[1] = test system: hepatocellular deficiency; settings: inventors' prior studies (PCT/WO 01/12327; Ferret et al. 2001); cited from earlier work
[2] = test system: acetaminophen-induced acute hepatic failure; assay: Animal survival in acetaminophen-induced acute hepatic failure, comparison of Mangafodipir, MnTBAP and CuDIPS (Example 7); assay type: in vivo, mice; settings: for number of surviving animals: 10 mg/kg bolus 2 h before 1000 mg/kg APAP, n = 12
Method: The Mangafodipir, the MnTBAP or the CuDIPS are administered in the form of a bolus, in the preventive capacity, 2 hours before the acetaminophen.
Animal survival is monitored for 24 hours after the administration of acetaminophen.

Row | Compound | effect on hepatocellular deficiency [1] | number of surviving animals ([2]; time 0 h) | number of surviving animals ([2]; time 6 h) | number of surviving animals ([2]; time 8 h) | number of surviving animals ([2]; time 9 h) | number of surviving animals ([2]; time 10 h) | number of surviving animals ([2]; time 11 h) | number of surviving animals ([2]; time 12 h) | number of surviving animals ([2]; time 13 h) | number of surviving animals ([2]; time 14 h) | number of surviving animals ([2]; time 15 h) | number of surviving animals ([2]; time 16 h) | number of surviving animals ([2]; time 17 h) | number of surviving animals ([2]; time 18 h) | number of surviving animals ([2]; time 20 h) | number of surviving animals ([2]; time 22 h) | number of surviving animals ([2]; time 24 h) | effect on survival rate ([2]; 10 mg/kg preventively, 1000 mg/kg APAP, 24 h)
1 | O=C(O)c1ccc(-c2c3nc(c(-c4ccc(C(=O)O)cc4)c4ccc([n-]4)c(-c4ccc(C(=O)O)cc4)c4nc(c(-c5ccc(C(=O)O)cc5)c5ccc2[n-]5)C=C4)C=C3)cc1.[Mn+3] [MnTBAP, Mn(III)-tetrakis(5,10,15,20-benzoic acid)-porphyrin] | notable preventive and curative effect | 12 | 12 | 12 | 12 | 11 | 10 | 10 | 10 | 9 | 9 | 8 | 8 | 8 | 8 | 7 | 7 | –
2 | CC(C)c1cc(C(=O)[O-])c(O)c(C(C)C)c1.CC(C)c1cc(C(=O)[O-])c(O)c(C(C)C)c1.[Cu+2] [CuDIPS, Cu[II]-[diisopropylsalicylate]] | no significant effect | 12 | 12 | 11 | 10 | 9 | 7 | 7 | 5 | 5 | 5 | 4 | 4 | 3 | 3 | 3 | 3 | does not significantly increase the survival rate
